Measured values from patent US9745274B2, “Compound, organic cation transporter 3 detection agent, and organic cation transporter 3 activity inhibitor” (SHIN NIPPON BIOMEDICAL LABORATORIES, LTD., priority 2013, dated 2017).
pIC50: −log10 of the molar value. Where two headings read alike, the source gives them in different places.

Columns and labels:
[1] = various diagnostic methods in clinical trials, WO 01/93863; cited from earlier work
[2] = molecular target: T1, human organic cation transporter 3 (hOCT3) (Homo sapiens, UniProt O75751); experiment: Histamine incorporation experiment in HEK293 cells expressing hOCT3 (OCT3 inhibition activity); assay type: cell-based; settings: Compound Concentration 10 μM
T1 construct: expressed in transfected cells; host or cells: HEK293
T1 sequence (O75751 1-556): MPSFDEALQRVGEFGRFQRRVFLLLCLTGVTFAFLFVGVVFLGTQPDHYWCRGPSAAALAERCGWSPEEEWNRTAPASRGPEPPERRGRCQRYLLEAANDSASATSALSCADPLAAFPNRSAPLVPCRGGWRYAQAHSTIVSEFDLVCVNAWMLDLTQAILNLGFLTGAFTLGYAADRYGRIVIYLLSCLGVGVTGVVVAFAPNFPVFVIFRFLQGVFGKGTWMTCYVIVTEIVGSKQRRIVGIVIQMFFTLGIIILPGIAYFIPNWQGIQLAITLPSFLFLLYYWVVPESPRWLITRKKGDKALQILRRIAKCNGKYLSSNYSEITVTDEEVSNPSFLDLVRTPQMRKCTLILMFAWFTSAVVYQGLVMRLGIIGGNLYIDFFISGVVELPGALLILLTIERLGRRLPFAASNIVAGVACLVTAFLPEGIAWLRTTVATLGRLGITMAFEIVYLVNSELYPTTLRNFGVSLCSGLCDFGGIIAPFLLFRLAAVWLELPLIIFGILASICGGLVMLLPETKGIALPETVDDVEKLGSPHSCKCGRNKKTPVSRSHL
Experimental: In order to measure an activity that inhibits OCT3 from incorporating a substrate (OCT3 inhibition activity) for each compound, histamine incorporation experiments as described below were performed.
Histamine incorporation experiments were performed in accordance with a method disclosed in Br J Pharmacol. 2002; 136(6): 829-836. In the experiments, HEK293 cells were used. The HEK293 cell is a human embryonal renal cell strain expressing human organic cation transporter 3 (hOCT3). The HEK 293 cells were inoculated onto 24-well plates at 1.5×10^5 cells/well, and were cultivated overnight in a carbon dioxide incubator. Test substances were dissolved in 100% DMSO solution and then dissolved in HBSS-HEPES solution (buffer solution prepared by dissolving 9.7 g Hank's Balanced Salt, 1.4% sodium bicarbonate 25 mL, and 1M HEPES 25 mL in 940 mL ultra pure water, and by adjusting to pH7.4 with 1M sodium hydroxide). After removing culture media for cell culture, pretreatment was performed for 5 minutes with 1 mL HBSS-HEPES solution. Then, the test substance and [3H]histamine (final concentration 100 nM) were added to the cells and reacted for 1 minute at room temperature. After the reaction was completed, the reaction was stopped by ice-cooled HBSS-HEPES solution, extracellular fluid was aspirated by an aspirator, and then the cells were washed twice with HBSS-HEPES. After washing, the cells were dissolved in 0.5M sodium hydroxide solution. The amount of histamine in the cells was found by measuring a radioactivity in a cell lysis solution by a liquid scintillation counter. Protein content in the cells was measured by Lowry method (J Biol Chem. 1951; 193(1): 265-75) by using the cell lysis solution, and translated into histamine incorporation amount per protein content for each experiment. A histamine incorporation rate (%) in the presence of 30 μM of the test substance was calculated by regarding a histamine incorporation amount in a case of no incorporation inhibitor as 100% (control) of histamine incorporation rate. A value (%) obtained by subtracting the histamine incorporation rate from 100(%) was calculated as an OCT3 inhibition rate (%).
Note that a histamine incorporation rate (%) in the presence of 10 μM of the test substance was calculated by regarding a histamine incorporation amount in a case of no incorporation inhibitor as 100% (control) of histamine incorporation rate. A value (%) obtained by subtracting the histamine incorporation rate from 100(%) was calculated as an OCT3 inhibition rate (%). […]

[3] = molecular target: T1, human organic cation transporter 3 (hOCT3); experiment: as above; assay type: cell-based; settings: control curve
OCT3 = molecular target: T2, OCT3 (Homo sapiens, UniProt O75751); settings: Sata et al., J Pharmacol Exp Ther. 2005, cited from earlier work
T2 sequence (O75751 1-556): T1 sequence (O75751 1-556)

Male ddY-strain mice = experiment: Forced swimming test (akinesis time); assay type: in vivo, mouse; settings: low dose administered independently: imipramine 4 mg/kg or OCT3 inhibitor 0.25 μl/hr
Source text: In the forced swimming test, forced swimming is loaded on a mouse or rat as a test animal in a test tank from which the mouse or rat cannot escape. Then, after an escape behavior of the test animal, an akinesis (a state in which the test animal is floating with only its face out over the surface of the water and without moving legs) is confirmed. When the test animal is put in the test tank again after 24 or more hours later, the akinesis is expressed earlier than the first test. Duration of the akinesis within a predetermined time period (generally about 5 minutes) is reproduced relatively accurately.
Specifically, a test is performed as follows.
Male ddY-strain mice (Japan SLC, Inc.) having body weights of 28 to 33 g are used for an experiment. […] In the first forced swimming test, all of the laboratory mice are made to swim in a glass cylinder (diameter 15.5 cm, depth 17 cm, depth of water 12 cm, temperature of water 25° C.) for 300 seconds, the akinesis time are measured, and the mice are divided into experimental groups (OCT3 inhibitor administration group, positive control group, and negative control group) so that average values of these groups are almost identical. […] After one week from the injection, the mice are made to swim in the cylinder again for 300 seconds, and the akinesis time is measured for each of the mice. […]

remaining activity at 10 µM ([2]; HEK293, 1 min, no inhibitor = 100%, read-out: Histamine Incorporation Rate to Control (%)) [%]	inhibition at 10 µM ([2]; HEK293, 100% minus histamine incorporation rate) [%]	IC80 ([3]; HEK293) [µM]	pIC50 [3]	SMILES	antidepressant activity [1]	OCT3 inhibition activity (in words) (OCT3; listed as Famotidine)	OCT3 inhibition activity (in words) (OCT3; listed as famotidine)	average of the akinesis time (Male ddY-strain mice)
92.4	7.6	330	4.17	NC(N)=Nc1nc(CSCCC(N)=NS(N)(=O)=O)cs1 [FAMOTIDINE, famotidine, reference compound]	antidepressant activity is confirmed	strong OCT3 inhibition activity	strong OCT3 activity inhibition action	–
–	–	–	–	CN(C)CCCN1c2ccccc2CCc2ccccc21 [imipramine]	–	–	–	about 200 seconds
